Measured values: PubChem BioAssay AID256 (DTP/NCI, 2004)
Values joined by “and” are separate entries in the source; they are usually repeats but may differ in a detail not shown here. Equal entries are not always repeated. Toxic doses and inconclusive results are not listed. How the source made its calls: active means survival T/C of 150% or more; inactive means T/C below 125% in these data.

System: CD2F1 mice, L1210 leukemia ip, survival T/C
Test: NCI In Vivo Anticancer Drug Screen. Data for tumor model L1210 Leukemia (intraperitoneal) in CD2F1 (CDF1) mice
Details: higher = longer survival
Summary of the method: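 Each value reflects a quotient of treated over vehicle control outcomes in mice with a transplanted tumor.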

[1] = endpoint: mean survival time, dose: 100.0 mg/kg/injection, schedule: Q01DX009 (ip), vehicle: other
[2] = endpoint: mean survival time, dose: 200.0 mg/kg/injection, schedule: Q01DX009 (ip), vehicle: other
[3] = endpoint: mean survival time, dose: 400.0 mg/kg/injection, schedule: Q01DX009 (ip), vehicle: other
[4] = endpoint: mean survival time, dose: 100.0 mg/kg/injection, schedule: Q04DX003 (ip), vehicle: saline with Tween-80
[5] = endpoint: mean survival time, dose: 200.0 mg/kg/injection, schedule: Q04DX003 (ip), vehicle: saline with Tween-80
[6] = endpoint: mean survival time, dose: 400.0 mg/kg/injection, schedule: Q04DX003 (ip), vehicle: saline with Tween-80
[7] = endpoint: mean survival time, dose: 12.5 mg/kg/injection, schedule: Q01DX009 (ip), vehicle: Klucel (hydroxypropylcellulose) (HPC)
[8] = endpoint: mean survival time, dose: 25.0 mg/kg/injection, schedule: Q01DX009 (ip), vehicle: Klucel (hydroxypropylcellulose) (HPC)
[9] = endpoint: mean survival time, dose: 50.0 mg/kg/injection, schedule: Q01DX009 (ip), vehicle: saline with Tween-80
[10] = endpoint: mean survival time, dose: 100.0 mg/kg/injection, schedule: Q01DX009 (ip), vehicle: saline with Tween-80
[11] = endpoint: mean survival time, dose: 100.0 mg/kg/injection, schedule: Q01DX001 (ip), vehicle: saline with Tween-80
[12] = endpoint: mean survival time, dose: 200.0 mg/kg/injection, schedule: Q01DX001 (ip), vehicle: saline with Tween-80
[13] = endpoint: mean survival time, dose: 400.0 mg/kg/injection, schedule: Q01DX001 (ip), vehicle: saline with Tween-80
[14] = endpoint: mean survival time, dose: 100.0 mg/kg/injection, schedule: Q04DX003 (ip), vehicle: saline
[15] = endpoint: mean survival time, dose: 200.0 mg/kg/injection, schedule: Q04DX003 (ip), vehicle: saline
[16] = endpoint: mean survival time, dose: 200.0 mg/kg/injection, schedule: Q01DX009 (ip), vehicle: saline with Tween-80
[17] = endpoint: mean survival time, dose: 100.0 mg/kg/injection, schedule: Q04DX002 (ip), vehicle: saline with Tween-80
[18] = endpoint: mean survival time, dose: 200.0 mg/kg/injection, schedule: Q04DX002 (ip), vehicle: saline with Tween-80

Measured: T/C

CN(C)C=NC1=NN(C)c2ncnc3c2c1cn3C1OC(CO)C(O)C1O (configuration not stated)
inactive: endpoint: mean survival time, dose: 12.5 mg/kg/injection, schedule: Q01DX009 (ip), vehicle: water 101 % of control | endpoint: mean survival time, dose: 25.0 mg/kg/injection, schedule: Q01DX009 (ip), vehicle: water 95 % of control | endpoint: mean survival time, dose: 50.0 mg/kg/injection, schedule: Q01DX009 (ip), vehicle: water 95 % of control | [1] 108 % of control | endpoint: mean survival time, dose: 100.0 mg/kg/injection, schedule: Q01DX009 (ip), vehicle: water 103 % of control | [2] 104 % of control | endpoint: mean survival time, dose: 200.0 mg/kg/injection, schedule: Q01DX009 (ip), vehicle: water 110 % of control | [3] 115 % of control

OCCN1CCN(CC/C=C2/c3ccccc3Sc3ccc(Cl)cc32)CC1
inactive: endpoint: mean survival time, dose: 1.56 mg/kg/injection, schedule: Q01DX009 (ip), vehicle: saline 92 % of control and 97 % of control | endpoint: mean survival time, dose: 3.12 mg/kg/injection, schedule: Q01DX009 (ip), vehicle: saline 98 % of control | endpoint: mean survival time, dose: 6.25 mg/kg/injection, schedule: Q01DX009 (ip), vehicle: saline 104 % of control and 110 % of control | endpoint: mean survival time, dose: 12.5 mg/kg/injection, schedule: Q01DX009 (ip), vehicle: saline 116 % of control and 110 % of control | endpoint: mean survival time, dose: 25.0 mg/kg/injection, schedule: Q01DX009 (ip), vehicle: saline 122 % of control and 124 % of control | endpoint: mean survival time, dose: 50.0 mg/kg/injection, schedule: Q01DX009 (ip), vehicle: saline 106 % of control

CCOC(=O)C1(C(=O)OCC)CCC2Nc3ccccc3C(=O)N21 (configuration not stated)
inactive: endpoint: mean survival time, dose: 100.0 mg/kg/injection, schedule: Q01DX001 (ip), vehicle: Klucel (hydroxypropylcellulose) (HPC) 108 % of control | endpoint: mean survival time, dose: 200.0 mg/kg/injection, schedule: Q01DX001 (ip), vehicle: Klucel (hydroxypropylcellulose) (HPC) 108 % of control | endpoint: mean survival time, dose: 400.0 mg/kg/injection, schedule: Q01DX001 (ip), vehicle: Klucel (hydroxypropylcellulose) (HPC) 96 % of control

CN(C)S(=O)(=O)c1cc(Cl)ccc1NN
inactive: [4] 98 % of control | [5] 104 % of control | [6] 104 % of control

Cc1c(O)c2c(c(O)c1Cc1ccc(C#N)cc1)C(=O)c1ccccc1C2=O
inactive: [7] 91 % of control | [8] 96 % of control | endpoint: mean survival time, dose: 100.0 mg/kg/injection, schedule: Q01DX009 (ip), vehicle: Klucel (hydroxypropylcellulose) (HPC) 90 % of control | endpoint: mean survival time, dose: 200.0 mg/kg/injection, schedule: Q01DX009 (ip), vehicle: Klucel (hydroxypropylcellulose) (HPC) 94 % of control

Nc1nc(Br)c(Br)nc1N
inactive: [1] 92 % of control | [2] 103 % of control | [3] 95 % of control

Nc1ncnc2c1ncn2C1OC(CO)C(NC(=O)C(N)Cc2ccccc2)C1O (configuration not stated)
inactive: endpoint: mean survival time, dose: 100.0 mg/kg/injection, schedule: Q01DX001 (ip), vehicle: saline 94 % of control | endpoint: mean survival time, dose: 200.0 mg/kg/injection, schedule: Q01DX001 (ip), vehicle: saline 92 % of control | endpoint: mean survival time, dose: 400.0 mg/kg/injection, schedule: Q01DX001 (ip), vehicle: saline 91 % of control

Cc1ccc([N+](=O)[O-])cc1NC(=O)Nc1onc(C)c1C
inactive: [7] 89 % of control | [8] 95 % of control

O=C(O)CSc1nc2ccccc2s1
inactive: endpoint: mean survival time, dose: 25.0 mg/kg/injection, schedule: Q01DX009 (ip), vehicle: saline with Tween-80 96 % of control | [9] 95 % of control | [10] 97 % of control | [4] 93 % of control | [5] 94 % of control | [6] 96 % of control

c1ccc2c3c([nH]c2c1)CCCCC3
inactive: [4] 92 % of control | [5] 95 % of control | [6] 94 % of control

CC(C)(C)N1CCCC1
inactive: endpoint: mean survival time, dose: 100.0 mg/kg/injection, schedule: Q04DX003 (ip), vehicle: acetone 96 % of control

COC(=O)CC(O)(CCCC(C)(C)O)C(=O)OC1C(OC)=CC23CCCN2CCc2cc4c(cc2C13)OCO4 (configuration not stated) (tested in a mixture with another compound)
inactive: endpoint: mean survival time, dose: 0.25 mg/kg/injection, schedule: Q01DX009 (ip), vehicle: saline with Tween-80 112 % of control | endpoint: mean survival time, dose: 0.5 mg/kg/injection, schedule: Q01DX009 (ip), vehicle: saline with Tween-80 115 % of control | endpoint: mean survival time, dose: 1.0 mg/kg/injection, schedule: Q01DX009 (ip), vehicle: saline with Tween-80 115 % of control | endpoint: mean survival time, dose: 2.0 mg/kg/injection, schedule: Q01DX009 (ip), vehicle: saline with Tween-80 124 % of control

Cc1ccc2c(c1)C(=NCCCN=C1C(=O)Nc3ccc(C)cc31)C(=O)N2
inactive: [11] 103 % of control | [12] 95 % of control | [13] 98 % of control

CCCCC1(C2CCCC2)NC(C)(C)CC(C)O1 (configuration not stated)
inactive: [14] 97 % of control | [15] 96 % of control | endpoint: mean survival time, dose: 400.0 mg/kg/injection, schedule: Q04DX003 (ip), vehicle: saline 89 % of control

Nc1nc2c(ncn2-c2ccccc2Br)c(=O)[nH]1
inactive: endpoint: mean survival time, dose: 75.0 mg/kg/injection, schedule: Q01DX001 (ip), vehicle: saline with Tween-80 101 % of control | endpoint: mean survival time, dose: 150.0 mg/kg/injection, schedule: Q01DX001 (ip), vehicle: saline with Tween-80 100 % of control | endpoint: mean survival time, dose: 300.0 mg/kg/injection, schedule: Q01DX001 (ip), vehicle: saline with Tween-80 101 % of control

CN(C=O)C(C(=O)Nc1cccc2c(OC(=O)C(N(C)C=O)(N(C)C=O)N(C)C=O)c(N=Nc3ccc(S(=O)(=O)Nc4nccs4)cc3)cc(N=Nc3ccc(S(=O)(=O)Nc4nccs4)cc3)c12)(N(C)C=O)N(C)C=O (tested in a mixture with another compound)
inactive: endpoint: median survival time, dose: 12.0 mg/kg/injection, schedule: Q01DX009 (ip), vehicle: saline with Tween-80 95 % of control | endpoint: median survival time, dose: 25.0 mg/kg/injection, schedule: Q01DX009 (ip), vehicle: saline with Tween-80 106 % of control | endpoint: median survival time, dose: 50.0 mg/kg/injection, schedule: Q01DX009 (ip), vehicle: saline with Tween-80 95 % of control | endpoint: median survival time, dose: 100.0 mg/kg/injection, schedule: Q01DX009 (ip), vehicle: saline with Tween-80 94 % of control | endpoint: median survival time, dose: 200.0 mg/kg/injection, schedule: Q01DX009 (ip), vehicle: saline with Tween-80 97 % of control | endpoint: median survival time, dose: 400.0 mg/kg/injection, schedule: Q01DX009 (ip), vehicle: saline with Tween-80 106 % of control

CCN(CC)CCNc1ncnc(N)c1C(=C(C)C)c1ccc(Cl)cc1
inactive: [9] 96 % of control | [11] 94 % of control | [10] 96 % of control | [12] 86 % of control | [16] 87 % of control

CC(=O)NC1=CC(=Nc2ccc(N(C)C)cc2)C=CC1=O
inactive: endpoint: mean survival time, dose: 1.25 mg/kg/injection, schedule: Q01DX009 (ip), vehicle: suspension in saline 95 % of control and 97 % of control | endpoint: mean survival time, dose: 2.5 mg/kg/injection, schedule: Q01DX009 (ip), vehicle: suspension in saline 95 % of control and 103 % of control | endpoint: mean survival time, dose: 5.0 mg/kg/injection, schedule: Q01DX009 (ip), vehicle: suspension in saline 97 % of control and 101 % of control | endpoint: mean survival time, dose: 10.0 mg/kg/injection, schedule: Q01DX009 (ip), vehicle: suspension in saline 90 % of control and 97 % of control

COc1ccc2[nH]c3cc(Cl)ccc3c(=O)c2c1
inactive: [11] 87 % of control | [13] 90 % of control

CC(NC(=O)CCl)C(=O)O (configuration not stated)
inactive: [14] 94 % of control | [15] 100 % of control

CCC1(C)CCC2C(=CCC3C(C)(C(=O)OC)CCCC23C)C1 (configuration not stated)
inactive: [11] 94 % of control | [12] 92 % of control | [13] 94 % of control

O=C(O)c1ccc([N+](=O)[O-])cc1Br
inactive: [17] 96 % of control | [18] 107 % of control | endpoint: mean survival time, dose: 400.0 mg/kg/injection, schedule: Q04DX002 (ip), vehicle: saline with Tween-80 100 % of control

O=c1c2cccc3cccc(c4n1NC=c1ccccc1=4)c32
inactive: endpoint: mean survival time, dose: 25.0 mg/kg/injection, schedule: Q04DX002 (ip), vehicle: saline with Tween-80 100 % of control | endpoint: mean survival time, dose: 50.0 mg/kg/injection, schedule: Q04DX002 (ip), vehicle: saline with Tween-80 92 % of control | [17] 96 % of control | [18] 96 % of control

ClCC1(CCl)COC(c2ccccc2)OC1
inactive: [10] 95 % of control | [16] 95 % of control | endpoint: mean survival time, dose: 400.0 mg/kg/injection, schedule: Q01DX009 (ip), vehicle: saline with Tween-80 94 % of control
